# Laboratory results taken from patent US10947196B2, “Beta adrenergic agonist and methods of using the same” (CURASEN THERAPEUTICS, INC., priority 2019, dated 2021).
# Read-outs that look alike come from different tables or passages of the source.
# Assays:
# hERG channel = hERG channel (Homo sapiens (Human), UniProt Q12809); test: hERG manual patch clamp; assay type: cell-based
# Experimental: Cell lines and cell culture. HEK 293 cell line stably expressing hERG channel (Cat #K1236) was purchased from Invitrogen. The cells are cultured in 85% DMEM, 10% dialyzed FBS, 0.1 mM NEAA, 25 mM HEPES, 100 U/mL Penicillin-Streptomycin and 5 μg/mL Blasticidin and 400 μg/mL Geneticin. Cells were split using TrypLE™ Express about three times a week, and maintained between ˜40% to […] confluence. Before the assay, the cells were transferred onto the coverslips at 5×10^5 cells/per 6 cm cell culture dish and induced with doxycycline at 1 μg/mL for 48 hours.
# Solution preparations. Extracellular solution (in mM): 132 NaCl, 4 KCl, 3 CaCl2, 0.5 MgCl2, 11.1 glucose, and 10 HEPES (pH adjusted to 7.35 with NaOH) Intracellular solution (in mM): 140 KCl, 2 MgCl2, 10 EGTA, 10 HEPES and 5 MgATP (pH adjusted to 7.35 with KOH). […]
# Experimental procedure. […] The holding potential was set to −90 mV for 500 ms and the current was recorded at 50 kHz and filtered at 10 kHz. […]
# The hERG current was elicited by depolarizing at +30 mV for 4.8 seconds and then the voltage was taken back to −50 mV for 5.2 seconds to remove the inactivation and observe the deactivating tail current. […] The current was recorded for 120 seconds to assess the current stability. […]
# Data that met the above criteria for hERG current quality were further analyzed. Percent hERG current inhibition was calculated using the following equation. […]
# [1] = Hepatocyte stability (mouse); assay type: in vitro ADME; settings: 0.5×10^6 viable cells/mL
# Experimental: 10 mM and 100 μM stock solutions of test compound(s) and a positive control were prepared in appropriate solvent (DMSO). In separate conical tubes, the 10 mM test compound and the positive control were diluted to 100 μM by combining 198 μL of 50% acetonitrile/50% water and 2 μL of 10 mM stock. The 100 μM test compound and the positive control were diluted to 30 μM by combining 140 μL of 50% acetonitrile/50% water and 60 μL of 100 μM stock solution. The 100 μM test compound and the positive control were diluted to 10 μM by combining 180 μL of 50% acetonitrile/50% water and 20 μL of 100 μM stock solution. The 100 μM test compound and the positive control were diluted to 3 μM by combining 194 μL of 50% acetonitrile/50% water and 6 μL of 100 μM stock solution.
# Incubation medium (William's E Medium supplemented with GlutaMAX) and hepatocyte thawing medium was placed in a 37° C. water bath, and allowed to warm for at least 15 minutes prior to use. […]
# Using AOPI staining solution, cells were counted and the viable cell density was determined. […]
# All calculations were carried out using Microsoft Excel. Peak areas were determined from extracted ion chromatograms. […]
# The in vitro half-life (in vitro t1/2) was determined from the slope value: in vitro t1/2=0.693/k
# hERG channel, sequence (Q12809 whole entry): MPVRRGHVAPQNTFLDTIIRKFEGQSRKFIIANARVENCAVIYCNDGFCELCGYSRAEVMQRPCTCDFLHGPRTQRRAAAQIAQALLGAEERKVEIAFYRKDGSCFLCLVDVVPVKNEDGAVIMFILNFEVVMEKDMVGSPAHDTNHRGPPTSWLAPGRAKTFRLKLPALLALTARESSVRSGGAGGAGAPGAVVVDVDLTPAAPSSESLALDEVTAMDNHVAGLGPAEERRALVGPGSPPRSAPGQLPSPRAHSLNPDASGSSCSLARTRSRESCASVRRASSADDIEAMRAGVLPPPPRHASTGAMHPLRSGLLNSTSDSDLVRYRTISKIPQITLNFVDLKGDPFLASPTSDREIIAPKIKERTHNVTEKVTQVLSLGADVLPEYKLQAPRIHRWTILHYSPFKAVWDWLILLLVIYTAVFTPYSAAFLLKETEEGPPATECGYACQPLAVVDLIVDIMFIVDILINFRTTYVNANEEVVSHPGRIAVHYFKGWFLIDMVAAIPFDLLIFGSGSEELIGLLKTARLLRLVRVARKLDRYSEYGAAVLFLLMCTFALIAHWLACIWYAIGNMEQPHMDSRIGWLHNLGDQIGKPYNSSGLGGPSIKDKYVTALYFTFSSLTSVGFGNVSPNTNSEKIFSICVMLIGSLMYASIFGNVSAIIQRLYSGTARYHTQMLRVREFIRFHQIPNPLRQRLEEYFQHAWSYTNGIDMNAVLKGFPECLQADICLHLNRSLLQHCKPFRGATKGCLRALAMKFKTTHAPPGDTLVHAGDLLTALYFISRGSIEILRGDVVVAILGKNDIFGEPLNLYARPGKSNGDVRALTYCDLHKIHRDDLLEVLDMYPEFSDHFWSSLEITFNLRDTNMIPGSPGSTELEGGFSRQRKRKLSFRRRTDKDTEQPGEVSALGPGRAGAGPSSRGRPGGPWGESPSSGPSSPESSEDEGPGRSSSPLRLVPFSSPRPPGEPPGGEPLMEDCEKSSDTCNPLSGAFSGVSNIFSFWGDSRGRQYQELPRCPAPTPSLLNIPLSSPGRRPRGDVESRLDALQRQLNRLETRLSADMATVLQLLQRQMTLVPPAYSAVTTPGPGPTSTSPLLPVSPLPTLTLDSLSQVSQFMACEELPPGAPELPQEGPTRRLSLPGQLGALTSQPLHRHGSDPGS
Structure (SMILES),IC50 (hERG channel) [µM],"Hepatocyte stability, Mouse [1] [μL/min/10^6 cells]","IC50 (hERG channel; manual patch clamp, HEK 293 cells, read-out: hERG IC50) [µM]"
CC(C)(C)NC[C@H](O)c1cccc(C(F)(F)F)n1 [Compound 03-3],> 30,,
"CC(C)(C)NC[C@H](O)c1cccc(C#N)n1 [Compound 03-5, (S)-6-(2-(tert-butylamino)-1-hydroxyethyl)picolinonitrile]",,1.46,> 30
Cc1ncccc1[C@@H](O)CNC(C)(C)C [Compound 03-115],,1.08,
